Test results published in ChEMBL document CHEMBL5500332, “Structure-based approaches for the design of 6-aryl-1-(3,4,5-trimethoxyphenyl)-1H-benzo[d][1,2,3]triazoles as tubulin polymerization inhibitors” (Eur J Med Chem, 2024).
Calls of active or inactive are those of the source. The rule behind the calls is not given here.

Columns and labels:
[1] = test system: 4T1; assay: Antitumor activity against mouse 4T1 cells xenografted in BALB/c mouse model assessed as tumor growth inhibition rate at 10 mg/kg, iv measured every two days for 2 weeks relative to control; type: functional; settings: 4T1, 336 h, read-out: TGI
[2] = molecular target: T1, Tubulin (Homo sapiens) (UniProt P68371+Q9H4B7+P0DPH7+P68366+Q13509+Q71U36+P04350+Q3ZCM7+P07437+P68363+Q9BQE3+Q6PEY2+Q13885+Q9BVA1+Q9BUF5); assay: Inhibition of tubulin polymerization (unknown origin) at 3 uM measured every 60 secs for 90 mins by microplate reader based analysis; type: protein-complex assay
[3] = Toxicity in BALB/c mouse assessed as effect on lung at 5 to 15 mg/kg, iv measured after 2 weeks by H and E staining based analysis; type: organism-based; settings: in vivo, 336 h, dose 5-15 mg/kg
[4] = test system: MCF7; assay: Induction of cell cycle arrest in human MCF7 cells assessed as accumulation of cells at S phase at 20 nM incubated for 24 hrs by PI staining based flow cytometry analysis (reference value: 14.58%); type: functional
[5] = Toxicity in BALB/c mouse assessed as effect on heart at 5 to 15 mg/kg, iv measured after 2 weeks by H and E staining based analysis; type: organism-based; settings: in vivo, 336 h, dose 5-15 mg/kg
[6] = test system: MCF7; assay: Inhibition of cell migration in human MCF7 cells at 20 to 40 nM incubated for 24 hrs by wound healing assay; type: functional, cell-based; settings: dose 20-40 nM
[7] = test system: 4T1; assay: Antiproliferative activity against mouse 4T1 cells measured after 72 hrs by MTT assay; type: functional, cell-based; settings: 4T1, 72 h
[8] = test system: MCF7; assay: Induction of apoptosis in human MCF7 cells assessed as early apoptotic cells at 40 nM incubated for 48 hrs by annexin V-FITC and PI staining based flow cytometry analysis (reference value: 2.17%); type: functional
[9] = Toxicity in BALB/c mouse assessed as drug tolerance at 5 to 15 mg/kg, iv measured after 2 weeks; type: organism-based; settings: in vivo, 336 h, dose 5-15 mg/kg
[10] = test system: MCF7; assay: Induction of apoptosis in human MCF7 cells assessed as necrotic cells at 20 nM incubated for 48 hrs by annexin V-FITC and PI staining based flow cytometry analysis (reference value: 2.25%); type: functional
[11] = test system: MCF7; assay: Induction of apoptosis in human MCF7 cells assessed as early apoptotic cells at 60 nM incubated for 48 hrs by annexin V-FITC and PI staining based flow cytometry analysis (reference value: 2.17%); type: functional
[12] = Toxicity in BALB/c mouse assessed as effect on body weight loss at 5 to 15 mg/kg, iv measured after 2 weeks; type: organism-based; settings: in vivo, 336 h, dose 5-15 mg/kg
[13] = test system: MCF7; assay: Inhibition of colony formation in human MCF7 cells at 60 nM measured after 24 hrs by crystal violet staining based analysis relative to control; type: functional
[14] = test system: MCF7; assay: Induction of apoptosis in human MCF7 cells assessed as viable cells at 40 nM incubated for 48 hrs by annexin V-FITC and PI staining based flow cytometry analysis (reference value: 92.4%); type: functional; settings: read-out: Activity
[15] = test system: MCF7; assay: Induction of cell cycle arrest in human MCF7 cells assessed as accumulation of cells at G2/M phase at 40 nM incubated for 24 hrs by PI staining based flow cytometry analysis (reference value: 14.36%); type: functional
[16] = test system: MCF7; assay: Induction of apoptosis in human MCF7 cells assessed as viable cells at 60 nM incubated for 48 hrs by annexin V-FITC and PI staining based flow cytometry analysis (reference value: 92.4%); type: functional; settings: read-out: Activity
[17] = test system: MCF7; assay: Induction of apoptosis in human MCF7 cells assessed as viable cells at 20 nM incubated for 48 hrs by annexin V-FITC and PI staining based flow cytometry analysis (reference value: 92.4%); type: functional; settings: read-out: Activity
[18] = test system: A549; assay: Antiproliferative activity against human A549 cells measured after 72 hrs by MTT assay; type: functional, cell-based; settings: A549, 72 h
[19] = test system: 4T1; assay: Antitumor activity against mouse 4T1 cells xenografted in BALB/c mouse model assessed as tumor growth inhibition rate at 5 mg/kg, iv measured every two days for 2 weeks relative to control; type: functional; settings: 4T1, 336 h, read-out: TGI
[20] = test system: MCF7; assay: Induction of cell cycle arrest in human MCF7 cells assessed as accumulation of cells at G0/G1 phase at 20 nM incubated for 24 hrs by PI staining based flow cytometry analysis (reference value: 69.67%); type: functional
[21] = test system: MCF7; assay: Induction of apoptosis in human MCF7 cells assessed as late apoptotic cells at 40 nM incubated for 48 hrs by annexin V-FITC and PI staining based flow cytometry analysis (reference value: 2.22%); type: functional
[22] = test system: MCF7; assay: Induction of cell cycle arrest in human MCF7 cells assessed as accumulation of cells at S phase at 40 nM incubated for 24 hrs by PI staining based flow cytometry analysis (reference value: 14.58%); type: functional
[23] = test system: MCF7; assay: Induction of apoptosis in human MCF7 cells assessed as late apoptotic cells at 60 nM incubated for 48 hrs by annexin V-FITC and PI staining based flow cytometry analysis (reference value: 2.22%); type: functional
[24] = test system: MCF7; assay: Induction of cell cycle arrest in human MCF7 cells assessed as accumulation of cells at S phase at 60 nM incubated for 24 hrs by PI staining based flow cytometry analysis (reference value: 14.58%); type: functional
[25] = test system: MCF7; assay: Induction of apoptosis in human MCF7 cells incubated for 48 hrs by annexin V-FITC and PI staining based flow cytometry analysis; type: functional, cell-based; settings: dose 20-60 nM
[26] = molecular target: T1, Tubulin (Homo sapiens); assay: Inhibition of tubulin polymerization (unknown origin) measured every 60 secs for 90 mins by microplate reader based analysis; type: protein-complex assay; settings: dose 1-8 µM
[27] = Toxicity in BALB/c mouse assessed as effect on liver at 5 to 15 mg/kg, iv measured after 2 weeks by H and E staining based analysis; type: organism-based; settings: in vivo, 336 h, dose 5-15 mg/kg
[28] = molecular target: T1, Tubulin (Homo sapiens); assay: Disruption of microtubule network in human MCF7 cells incubated for 24 hrs by immunofluorescence staining based confocal microscopic analysis; type: cell-based
[29] = test system: MCF7; assay: Induction of apoptosis in human MCF7 cells assessed as necrotic cells at 40 nM incubated for 48 hrs by annexin V-FITC and PI staining based flow cytometry analysis (reference value: 2.25%); type: functional
[30] = test system: MCF7; assay: Induction of cell cycle arrest in human MCF7 cells incubated for 24 hrs by PI staining based flow cytometry analysis; type: functional; settings: dose 20-60 nM
[31] = Toxicity in BALB/c mouse assessed as effect on spleen at 5 to 15 mg/kg, iv measured after 2 weeks by H and E staining based analysis; type: organism-based; settings: in vivo, 336 h, dose 5-15 mg/kg
[32] = test system: 4T1; assay: Antitumor activity against mouse 4T1 cells xenografted in BALB/c mouse model assessed as tumor growth inhibition rate at 15 mg/kg, iv measured every two days for 2 weeks relative to control; type: functional; settings: 4T1, 336 h, read-out: TGI
[33] = test system: MCF7; assay: Induction of cell cycle arrest in human MCF7 cells assessed as accumulation of cells at G0/G1 phase at 60 nM incubated for 24 hrs by PI staining based flow cytometry analysis (reference value: 69.67%); type: functional
[34] = test system: MCF7; assay: Induction of apoptosis in human MCF7 cells assessed as early apoptotic cells at 20 nM incubated for 48 hrs by annexin V-FITC and PI staining based flow cytometry analysis (reference value: 2.17%); type: functional
[35] = test system: MCF7; assay: Induction of cell cycle arrest in human MCF7 cells assessed as accumulation of cells at G0/G1 phase at 40 nM incubated for 24 hrs by PI staining based flow cytometry analysis (reference value: 69.67%); type: functional
[36] = test system: SGC-7901; assay: Antiproliferative activity against human SGC-7901 cells measured after 72 hrs by MTT assay; type: functional, cell-based; settings: SGC-7901, 72 h
[37] = Toxicity in BALB/c mouse assessed as effect on kidney at 5 to 15 mg/kg, iv measured after 2 weeks by H and E staining based analysis; type: organism-based; settings: in vivo, 336 h, dose 5-15 mg/kg
[38] = test system: MCF7; assay: Induction of apoptosis in human MCF7 cells assessed as necrotic cells at 60 nM incubated for 48 hrs by annexin V-FITC and PI staining based flow cytometry analysis (reference value: 2.25%); type: functional
[39] = test system: MCF7; assay: Induction of cell cycle arrest in human MCF7 cells assessed as accumulation of cells at G2/M phase at 60 nM incubated for 24 hrs by PI staining based flow cytometry analysis (reference value: 14.36%); type: functional
[40] = test system: MCF7; assay: Induction of cell cycle arrest in human MCF7 cells assessed as accumulation of cells at G2/M phase at 20 nM incubated for 24 hrs by PI staining based flow cytometry analysis (reference value: 14.36%); type: functional
[41] = test system: MCF7; assay: Inhibition of colony formation in human MCF7 cells measured after 24 hrs by crystal violet staining based analysis; type: functional, cell-based; settings: dose 20-40 nM
[42] = test system: MCF7; assay: Induction of apoptosis in human MCF7 cells assessed as late apoptotic cells at 20 nM incubated for 48 hrs by annexin V-FITC and PI staining based flow cytometry analysis (reference value: 2.22%); type: functional
[43] = test system: MCF7; assay: Antiproliferative activity against human MCF7 cells measured after 72 hrs by MTT assay; type: functional, cell-based; settings: MCF7, 72 h
[44] = test system: MCF7; assay: Induction of cell cycle arrest in human MCF7 cells assessed as accumulation of cells at G2/M phase at 30 nM incubated for 24 hrs by PI staining based flow cytometry analysis (reference value: 14.36%); type: functional
[45] = test system: MCF7; assay: Induction of cell cycle arrest in human MCF7 cells assessed as accumulation of cells at G0/G1 phase at 30 nM incubated for 24 hrs by PI staining based flow cytometry analysis (reference value: 69.67%); type: functional
[46] = test system: MCF7; assay: Induction of cell cycle arrest in human MCF7 cells assessed as accumulation of cells at G2/M phase at 15 nM incubated for 24 hrs by PI staining based flow cytometry analysis (reference value: 14.36%); type: functional
[47] = test system: MCF7; assay: Induction of cell cycle arrest in human MCF7 cells assessed as accumulation of cells at G0/G1 phase at 15 nM incubated for 24 hrs by PI staining based flow cytometry analysis (reference value: 69.67%); type: functional
[48] = test system: MCF7; assay: Induction of cell cycle arrest in human MCF7 cells assessed as accumulation of cells at S phase at 30 nM incubated for 24 hrs by PI staining based flow cytometry analysis (reference value: 14.58%); type: functional
[49] = test system: MCF7; assay: Induction of cell cycle arrest in human MCF7 cells assessed as accumulation of cells at S phase at 15 nM incubated for 24 hrs by PI staining based flow cytometry analysis (reference value: 14.58 %); type: functional

CC(=O)O[C@H]1C(=O)[C@@]2(C)[C@H]([C@H](OC(=O)c3ccccc3)[C@]3(O)C[C@H](OC(=O)[C@H](O)[C@@H](NC(=O)c4ccccc4)c4ccccc4)C(C)=C1C3(C)C)[C@]1(OC(C)=O)CO[C@@H]1C[C@@H]2O [PACLITAXEL]
inhibition in vivo at 10 mg/kg [1]: 72.1%
inhibition [2]: inactive

COc1ccc(-c2ccc3nnn(-c4cc(OC)c(OC)c(OC)c4)c3c2)cc1O
Activity [3]: Non-Toxic
Activity [4]: 22.71%
Activity [5]: Non-Toxic
inhibition [6]: Active
IC50 [7]: 32 nM
Activity [8]: 24.9%
Activity [9]: Non-Toxic
Activity [10]: 2.8%
Activity [11]: 26.4%
Activity [12]: Non-Toxic
inhibition at 0.06 µM [13]: 100%
viability at 0.04 µM [14]: 62.9%
Activity [15]: 26.14%
viability at 0.06 µM [16]: 60.9%
viability at 0.02 µM [17]: 83.6%
IC50 [18]: 45 nM
inhibition in vivo at 5 mg/kg [19]: 49.5%
Activity [20]: 60.54%
Activity [21]: 10.1%
Activity [22]: 34.21%
Activity [23]: 10.6%
Activity [24]: 21.52%
Activity [25]: Dose-Dependent Effect
inhibition [26]: Dose-Dependent Effect
Activity [27]: Non-Toxic
Activity [28]: Active
Activity [29]: 2.07%
Activity [30]: Dose-Dependent Effect
Activity [31]: Non-Toxic
inhibition in vivo at 15 mg/kg [32]: 68.5%
Activity [33]: 27.42%
Activity [34]: 5.47%
Activity [35]: 38.73%
IC50 [36]: 14 nM
Activity [37]: Non-Toxic
Activity [38]: 2.05%
Activity [39]: 50.23%
Activity [40]: 14.84%
inhibition [41]: Dose-Dependent Effect
Activity [42]: 8.16%
IC50 [43]: 20 nM

COc1cc2c(c(OC)c1OC)-c1ccc(OC)c(=O)cc1[C@@H](NC(C)=O)CC2 [COLCHICINE]
Activity [44]: 63.44%
Activity [45]: 8.87%
Activity [46]: 35.05%
Activity [47]: 37.19%
Activity [48]: 28.2%
Activity [49]: 24.77%
IC50 [36]: 12 nM
IC50 [43]: 30 nM
